According to patent US11845760B2, “PRMT5 inhibitors” (AMGEN INC., priority 2020, dated 2023):
Read-outs that look alike come from different tables or passages of the source.

What was measured:
HCT116 MTAP null cells = assay: HCT116 MTAP null cell line proliferation (CellTiter-Glo cell viability, 6 days); type: cell-based; details: HCT116 MTAP null cells, 6 days of treatment, CellTiter-Glo cell viability, read-out: HCT-116 MTAP null IC50
Procedure, shortened: (§1)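 Isogenic HCT116 pair (parent and MTAP double-allele knockout) in RPMI 1640 + 10% FBS, exposed 6 days to compound: 8–9-point 1:3 dilutions from 1 or 10 μM top, or 22-point 1:2 dilutions from 10 or 50 μM top. CellTiter-Glo luminescence; IC50 from sigmoidal fit (Hill −1) or 4-parameter logistic.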

HCT116 WT cells = assay: HCT116 WT cell line proliferation (CellTiter-Glo cell viability, 6 days); type: cell-based; details: HCT116 WT (parent) cells, 6 days of treatment, CellTiter-Glo cell viability, read-out: HCT-116 WT IC50
Procedure, shortened: as §1

Compound	IC50 (HCT116 MTAP null cells; HCT116-MTAP null, 144 h)	IC50 (HCT116 WT cells; Homo sapiens, HCT-116, 144 h)	IC50 (HCT116 MTAP null cells)	IC50 (HCT116 WT cells)
Nc1nc2ncc(C(=O)N3CCOC[C@@H]3c3ccc(OC(F)(F)F)cc3)cc2c2c1COC2 [Example 507, (4-amino-1,3-dihydrofuro[3,4-c][1,8]naphthyridin-8-yl)-[(3S)-3-[4-(trifluoromethoxy)phenyl]morpholin-4-yl]methanone]	843 nM	> 10000 nM		
Nc1nc2cnc(C(=O)N3CCOC[C@@H]3c3ccc(C(F)(F)F)cc3)cc2c2c1COC2 (single isomer, unassigned) [Example 481]	107 nM	4330 nM		
C[C@@H]1COC[C@H](c2ccc(OC(F)(F)F)cc2)N1C(=O)c1cc2c3c(c(N)nc2cn1)COC3 [Example 525, (4-amino-1,3-dihydrofuro[3,4-c][1,7]naphthyridin-8-yl)((3R,5S)-3-methyl-5-(4-(trifluoromethoxy)phenyl)-4-morpholinyl)methanone]	19 nM	372 nM		
Cn1ncc2c(N)nc3cc(F)c(C(=O)N4CC[C@@H](Oc5ccc(C(F)(F)F)cn5)C4)cc3c21 (single isomer, unassigned) [Example 475]			175 nM	9490 nM
C[C@H]1OCc2c1c(N)nc1ccc(C(=O)N3C[C@H](c4ccc(Cl)cc4)[C@@H](O)C3)cc21 (single isomer, unassigned) [Example 467]	982 nM	31200 nM		
C[C@H]1COC[C@@H](c2ccc(C(F)(F)F)cn2)N1C(=O)c1cc2c3c(c(N)nc2cn1)COC3 (racemic) [Example 339, (4-amino-1,3-dihydrofuro[3,4-c][1,7]naphthyridin-8-yl)((3R,5S)-3-methyl-5-(5-(trifluoromethyl)-2-pyridinyl)-4-morpholinyl)methanone and (4-amino-1,3-dihydrofuro[3,4-c][1,7]naphthyridin-8-yl)((3S,5R)-3-methyl-5-(5-(trifluoromethyl)-2-pyridinyl)-4-morpholinyl)methanone]	20 nM	497 nM		
Nc1nc2cnc(C(=O)N3CCOC[C@@H]3c3ccc(OC(F)(F)F)cc3)cc2c2c1COC2 [Example 506, (4-amino-1,3-dihydrofuro[3,4-c][1,7]naphthyridin-8-yl)-[(3S)-3-[4-(trifluoromethoxy)phenyl]morpholin-4-yl]methanone]	61 nM	2530 nM		
CC[C@@H]1CN(C(=O)c2ccc3nc(N)c4c(c3c2)CO[C@@H]4C)C[C@H]1c1ccc(C)cc1 (single isomer, unassigned) [Example 461]	864 nM	14600 nM		
CC1(C)CN(C(=O)c2cc3c4c(c(N)nc3cc2F)COC4)C[C@H]1c1ccc(F)cc1 (single isomer, unassigned) [Example 465]	71 nM	3510 nM		
Cc1ccc([C@@H]2CN(C(=O)c3cc4c5c(c(N)nc4cc3F)COC5)CC2(C)C)cc1 (single isomer, unassigned) [Example 464]	195 nM	5470 nM		
Nc1nc2cc(F)c(C(=O)N3CCOC[C@@H]3c3ccc(C(F)(F)F)cc3)cc2c2c1COC2 [Example 528, (4-amino-7-fluoro-1,3-dihydrofuro[3,4-c]quinolin-8-yl)((3S)-3-(4-(trifluoromethyl)phenyl)-4-morpholinyl)methanone]	29 nM	1210 nM		
C[C@@H]1COC[C@H](c2ccc(C(F)(F)F)cc2)N1C(=O)c1cc2c3c(c(N)nc2cc1F)COC3 [Example 526, (4-amino-7-fluoro-1,3-dihydrofuro[3,4-c]quinolin-8-yl)((3R,5S)-3-methyl-5-(4-(trifluoromethyl)phenyl)-4-morpholinyl)methanone]	6 nM	120 nM		
Cc1ccccc1C1COCCN1C(=O)c1ccc2nc(N)c3c(c2c1)COC3 (racemic) [Example 362, (4-amino-1,3-dihydrofuro[3,4-c]quinolin-8-yl)-[rac-(3S)-3-(o-tolyl)morpholin-4-yl]methanone]	3410 nM	> 10000 nM		
Nc1nc2ccc(C(=O)N3CCOCC3c3ncccn3)cc2c2c1COC2 (stereo not drawn) [Example 300, (4-amino-1,3-dihydrofuro[3,4-c]quinolin-8-yl)(3-(pyrimidin-2-yl)morpholino)methanone]	> 1000 nM	> 10000 nM		
C[C@H]1OCc2c1c(N)nc1ccc(C(=O)N3[C@@H](C)COC[C@H]3c3ccc(C(F)(F)F)nc3)cc21 (racemic) [Example 305, ((3R)-4-amino-3-methyl-1,3-dihydrofuro[3,4-c]quinolin-8-yl)((3R,5S)-3-methyl-5-(6-(trifluoromethyl)-3-pyridinyl)-4-morpholinyl)methanone and ((3R)-4-amino-3-methyl-1,3-dihydrofuro[3,4-c]quinolin-8-yl)((3S,5R)-3-methyl-5-(6-(trifluoromethyl)-3-pyridinyl)-4-morpholinyl)methanone]	49 nM	611 nM		
Cn1ncc2c3cc(C(=O)N4CCOC[C@@H]4c4ccc(C(F)(F)F)cc4)c(F)cc3nc(N)c21 [Example 518, (4-amino-7-fluoro-3-methyl-3H-pyrazolo[3,4-c]quinolin-8-yl)((3S)-3-(4-(trifluoromethyl)phenyl)-4-morpholinyl)methanone]	86 nM	4690 nM		
C[C@H]1OCc2c1c(N)nc1ccc(C(=O)N3[C@@H](C)COC[C@H]3c3ccc(OC(F)(F)F)cn3)cc21 (racemic) [Example 377, ((3R)-4-amino-3-methyl-1,3-dihydrofuro[3,4-c]quinolin-8-yl)((3R,5S)-3-methyl-5-(5-(trifluoromethoxy)-2-pyridinyl)-4-morpholinyl)methanone and ((3R)-4-amino-3-methyl-1,3-dihydrofuro[3,4-c]quinolin-8-yl)((3S,5R)-3-methyl-5-(5-(trifluoromethoxy)-2-pyridinyl)-4-morpholinyl)methanone]	37 nM	1110 nM		

Other lines, results leading:

IC50 (HCT116 MTAP null cells; HCT116-MTAP null, 144 h)	IC50 (HCT116 WT cells; Homo sapiens, HCT-116, 144 h)	IC50 (HCT116 MTAP null cells)	IC50 (HCT116 WT cells)	Compound
269 nM	8110 nM			Cn1ncc2c(N)nc3cc(C(F)(F)F)c(C(=O)N4CCOC[C@@H]4c4ccc(C(F)(F)F)cc4)cc3c21 [Example 548, (4-amino-1-methyl-7-(trifluoromethyl)-1H-pyrazolo[4,3-c]quinolin-8-yl)((3S)-3-(4-(trifluoromethyl)phenyl)-4-morpholinyl)methanone]
396 nM	3850 nM			Cn1ncc2c(N)nc3cc(C(F)(F)F)c(C(=O)N4CC[C@H](c5ccc(C(F)(F)F)cc5)C4)cc3c21 [Example 547, (4-amino-1-methyl-7-(trifluoromethyl)-1H-pyrazolo[4,3-c]quinolin-8-yl)((3R)-3-(4-(trifluoromethyl)phenyl)-1-pyrrolidinyl)methanone]
235 nM	12500 nM			Nc1nc2cc(Cl)c(C(=O)N3CCC(c4ccc(C(F)(F)F)cn4)C3)cc2c2c1COC2 (racemic) [Example 542, (4-amino-7-chloro-1,3-dihydrofuro[3,4-c]quinolin-8-yl)((3R)-3-(5-(trifluoromethyl)-2-pyridinyl)-1-pyrrolidinyl)methanone and (4-amino-7-chloro-1,3-dihydrofuro[3,4-c]quinolin-8-yl)((3S)-3-(5-(trifluoromethyl)-2-pyridinyl)-1-pyrrolidinyl)methanone]
> 1000 nM	> 10000 nM			C[C@@H]1CN(C(=O)c2ccc3nc(N)c4c(c3c2)COC4)[C@H](c2ccc(C(F)(F)F)cn2)CO1 (single isomer, unassigned) [Example 574]
6 nM	150 nM			COc1ccc([C@H]2COC[C@@H](C)N2C(=O)c2cc3c(cc2F)nc(N)c2cnn(C)c23)nn1 [Example 551, (4-amino-7-fluoro-1-methyl-1H-pyrazolo[4,3-c]quinolin-8-yl)((3S,5R)-3-(6-methoxy-3-pyridazinyl)-5-methyl-4-morpholinyl)methanone]
44 nM	2610 nM			C[C@@H]1COC[C@H](c2ccc(OC(F)(F)F)cc2)N1C(=O)c1ccc2nc(N)c3c(cnn3C)c2c1 [Example 534, (4-amino-3-methyl-3H-pyrazolo[3,4-c]quinolin-8-yl)((3R,5S)-3-methyl-5-(4-(trifluoromethoxy)phenyl)-4-morpholinyl)methanone]
138 nM	8010 nM			Nc1nc2cnc(C(=O)N3CCSC[C@@H]3c3ccc(C(F)(F)F)cc3)cc2c2c1COC2 (single isomer, unassigned) [Example 595, (4-amino-1,3-dihydrofuro[3,4-c][1,7]naphthyridin-8-yl)((3S)-3-(4-(trifluoromethyl)phenyl)-4-thiomorpholinyl)methanone or (4-amino-1,3-dihydrofuro[3,4-c][1,7]naphthyridin-8-yl)((3R)-3-(4-(trifluoromethyl)phenyl)-4-thiomorpholinyl)methanone]
36 nM	1790 nM			C[C@H]1OCc2c1c(N)nc1ccc(C(=O)N3CCOC[C@@H]3c3ccc(OC(F)(F)F)cc3)cc21 (single isomer, unassigned) [Example 568]
921 nM	> 10000 nM			Nc1nc2cnc(C(=O)N3CCC(F)(F)C[C@@H]3c3ccc(OC(F)(F)F)cc3)cc2c2c1COC2 (single isomer, unassigned) [Example 600]
575 nM	12000 nM			Cn1ncc2c(N)nc3cc(F)c(C(=O)N4CCOC[C@H]4c4ccc(C(F)(F)F)cn4)cc3c21 [Example 559, (4-amino-7-fluoro-1-methyl-1H-pyrazolo[4,3-c]quinolin-8-yl)((3R)-3-(5-(trifluoromethyl)-2-pyridinyl)-4-morpholinyl)methanone]
